US9162992B2, “Compounds and compositions for treatment of breathing control disorders or diseases” (GALLEON PHARMACEUTICALS, INC., priority 2010, dated 2015)
Converted amounts (≈) assume the structure as drawn. “And” between values parts separate entries of the source, which are not always exact repeats. Equal values may be shown once. Read-outs that look alike come from different tables or passages of the source.

Legend:
Format in all cases: physicochemical
[1] = Solubility as a function of pH (100 mM citric acid, room temperature); settings: for solubility / solubility thermodynamic: thermodynamic from solid; for solubility thermodynamic: 100 mM citric acid buffer, read-out: (XXXVI) concentration; for (XXXVI) concentration: not saturated
Procedure: A solution of (XXXVI) of concentration ˜[…] in 100 mM citric acid at pH 2.5 was prepared. About 150 μL aliquots of this solution were transferred into 6 separate glass HPLC vials. Each aliquot was titrated with 6N sodium hydroxide to different pH values in the range 3-5.5 (Table 12A). All the samples, including the solution at pH 2.5, were shaken overnight at room temperature using a gyratory shaker. After shaking, the samples were evaluated visually for the presence of precipitate and were then spin filtered through 0.45 μm syringe tip filters (4 mm diameter) at 3,000 rpm for 20 min. The final pH values of the filtrates were measured. The filtrates were then diluted appropriately and analyzed for (XXXV) concentration using the HPLC assay.
This equation is a simplified representation of solubility equilibrium for weak bases that assumes that total solubility is much larger than the solubility of the free base in the pH range of interest: log S=log S0+log(1+10^pKa-pH) Equation 1 where, ‘S’ is total solubility; ‘S0’ is the solubility of the free base.

[2] = Stability as a function of buffer strength (1 mg/mL, citrate pH 3.0); set-up: Assay: unit not given here; settings: for Impurities: unit assumed
Procedure: A 10 mg/mL (XXXVI) solution in 100 mM citrate buffer at pH 3.0 and a 500 mM citrate buffer at pH 3.0 were prepared. Using these two stock solutions, (XXXVI) solutions at 1 mg/mL were prepared in citrate buffers of various concentrations in the range 10-250 mM, as shown in Table 12E.
Each of the above solutions was stored in 5 mL serum vials as ca. 2.5-3 mL aliquots (total of 7 aliquots). Two aliquots were stored at each of 40° C., 60° C. and 25° C. Aliquots stored at 25° C. served as controls to be evaluated if necessary. […]

[3] = Solubility in solvents and IV solutions
Procedure: The solubility of (XXXXVI) and XXXV was evaluated in various solvents and IV solutions. Due to limits on the API supply at the time the study was conducted, most of the solvent systems were evaluated to a level of only 100 mg/mL even if the solution was not saturated at this level. Only in water was an attempt made to reach saturation solubility, regardless of how high that solubility might be. Solubility of the salt/free base in each solvent was evaluated in duplicate.
For solubility in water, drug was added with intermittent shaking to ensure that excess undissolved drug is present indicating saturation […]. The filtrates were diluted appropriately and analyzed for (XXXV) concentration by HPLC.

## CCCNc1nc(NCCC)nc(N(C)OC)n1 [XXXV, N-(4,6-Bis-n-propylamino-[1,3,5]triazin-2-yl)-N,O-dimethyl-hydroxylamine]
[1]; aqueous buffer
  solubility: 0.18 mg/mL (≈ 0.708 mM)
[1]; pH 3.16, aqueous buffer
  solubility: 50 mg/mL (≈ 197 mM)
[1]; pH 3.46, aqueous buffer
  solubility: 25 mg/mL (≈ 98.3 mM)
[1]; pH 3.5
  pH dependence of solubility: solubility was high at pH 3.5 or lower
[1]; pH 3.86, aqueous buffer
  solubility: 10 mg/mL (≈ 39.3 mM)
[2]; 10 mM, 40° C. 1 wk
  Assay: 0.953
  pH: 3.26
[2]; 10 mM, 40° C. 2 wk
  Assay: 0.947
  pH: 3.21
[2]; 10 mM, 60° C. 1 wk
  Assay: 0.953
  pH: 3.3
  Impurities: 0.48%
[2]; 10 mM, 60° C. 2 wk
  Assay: 0.956
  pH: 3.2
  Impurities: 0.89%
[2]; 10 mM, initial
  Assay: 0.971
  pH: 3.16
[2]; 20 mM, 40° C. 1 wk
  Assay: 0.965
  pH: 3.33
  Impurities: 0.13%
[2]; 20 mM, 40° C. 2 wk
  Assay: 0.966
  pH: 3.30
[2]; 20 mM, 60° C. 1 wk
  Assay: 0.943
  pH: 3.3
  Impurities: 0.58%
[2]; 20 mM, 60° C. 2 wk
  Assay: 0.947
  pH: 3.3
  Impurities: 0.88%
[2]; 20 mM, initial
  Assay: 1.01
  pH: 3.27
[2]; 50 mM, 40° C. 1 wk
  Assay: 0.959
  pH: 3.34
[2]; 50 mM, 40° C. 2 wk
  Assay: 0.949
  pH: 3.29
[2]; 50 mM, 60° C. 1 wk
  Assay: 0.936
  pH: 3.3
  Impurities: 0.59%
[2]; 50 mM, 60° C. 2 wk
  Assay: 0.943
  pH: 3.3
  Impurities: 0.87%
[2]; 50 mM, initial
  Assay: 0.976
  pH: 3.28
[2]; 100 mM, 40° C. 1 wk
  Assay: 0.964
  pH: 3.32
  Impurities: 0.26%
[2]; 100 mM, 40° C. 2 wk
  Assay: 0.956
  pH: 3.29
  Impurities: 0.38%
[2]; 100 mM, 60° C. 1 wk
  Assay: 0.962
  pH: 3.3
  Impurities: 0.73%
[2]; 100 mM, 60° C. 2 wk
  Assay: 0.946
  pH: 3.2
  Impurities: 1.2%
[2]; 100 mM, initial
  Assay: 0.962
  pH: 3.30
[2]; 250 mM, 40° C. 1 wk
  Assay: 0.972
  pH: 3.25
  Impurities: 0.21%
[2]; 250 mM, 40° C. 2 wk
  Assay: 0.945
  pH: 3.22
  Impurities: 0.56%
[2]; 250 mM, 60° C. 1 wk
  Assay: 0.955
  pH: 3.2
  Impurities: 1.03%
[2]; 250 mM, 60° C. 2 wk
  Assay: 0.936
  pH: 3.2
  Impurities: 1.8%
[2]; 250 mM, initial
  Assay: 0.947
  pH: 3.21
[2]; 40° C., buffer concentration relevant to the formulation (ca. 10-50 mM)
  effect of buffer strength on impurity levels: no effect of buffer strength at 40 °C
[3]; organic solvent or mixture, thermodynamic from solid, solubility
  solubility: > 90 mg/mL
[3]; water, thermodynamic from solid, Solubility
  solubility: ~0.21 mg/mL (≈ 0.826 mM)

## CCCNc1nc(NCCC)nc(N(C)OC)n1.O=S(=O)(O)O [XXXVI, N-(4,6-Bis-n-propylamino-[1,3,5]triazin-2-yl)-N,O-dimethyl-hydroxylamine hydrogen sulfate]
[1]; aqueous buffer, target pH 4.0, final pH 3.79
  solubility thermodynamic: 20.8 mg/mL
[1]; aqueous buffer, target pH 4.5, final pH 4.37
  solubility thermodynamic: 3.46 mg/mL
[1]; aqueous buffer, target pH 5.0, final pH 4.52
  solubility thermodynamic: 2.73 mg/mL
[1]; aqueous buffer, target pH 5.5, final pH 5.02
  solubility thermodynamic: 0.99 mg/mL
[1]; target pH 2.5
  appearance afterwards Shaking: Clear solution
[1]; target pH 2.5, final pH 2.42
  (XXXVI) concentration: 104.1
[1]; target pH 3.0
  appearance afterwards Shaking: Clear solution
[1]; target pH 3.0, final pH 3.00
  (XXXVI) concentration: 99.8
[1]; target pH 3.5
  appearance afterwards Shaking: Clear solution
[1]; target pH 3.5, final pH 3.51
  (XXXVI) concentration: 101.6
[1]; target pH 4.0
  appearance afterwards Shaking: Precipitate
[1]; target pH 4.5
  appearance afterwards Shaking: Precipitate
[1]; target pH 5.0
  appearance afterwards Shaking: Precipitate
[1]; target pH 5.5
  appearance afterwards Shaking: Precipitate
[3]; 0.9% NaCl, listed as (XXXV) hydrogen sulfate salt, hydrogen sulfate
  solubility: >201.4 mg/mL
[3]; 30% PEG-400, listed as (XXXV) hydrogen sulfate salt, hydrogen sulfate
  solubility: >197.0 mg/mL and >198.4 mg/mL
[3]; 30% Propylene Glycol, listed as (XXXV) hydrogen sulfate salt, hydrogen sulfate
  solubility: >89.47 mg/mL
[3]; 70% PEG-400, listed as (XXXV) hydrogen sulfate salt, hydrogen sulfate
  solubility: >85.28 mg/mL and >91.43 mg/mL
[3]; 70% Propylene Glycol, listed as (XXXV) hydrogen sulfate salt, hydrogen sulfate
  solubility: >92.43 mg/mL
[3]; Acetonitrile, listed as (XXXV) hydrogen sulfate salt, hydrogen sulfate
  solubility: 68.5 mg/mL and 67.1 mg/mL
[3]; Ethanol, listed as (XXXV) hydrogen sulfate salt, hydrogen sulfate
  solubility: >212.2 mg/mL
[3]; Methanol, listed as (XXXV) hydrogen sulfate salt, hydrogen sulfate
  solubility: >98.52 mg/mL
[3]; PEG-400 (100%), listed as (XXXV) hydrogen sulfate salt, hydrogen sulfate
  solubility: 35.74 mg/mL
[3]; Propylene Glycol (100%), listed as (XXXV) hydrogen sulfate salt, hydrogen sulfate
  solubility: >94.65 mg/mL
[3]; Water, listed as (XXXV) hydrogen sulfate salt, hydrogen sulfate
  solubility: 414.5 mg/mL and 441.5 mg/mL
[3]; aqueous with cosolvent or surfactant or cyclodextrin, thermodynamic from solid, 30% PEG-400, read-out: Solubility
  solubility: ~198 mg/mL
[3]; aqueous with cosolvent or surfactant or cyclodextrin, thermodynamic from solid, 30% Propylene Glycol, read-out: Solubility
  solubility: > 93.2 mg/mL
[3]; aqueous with cosolvent or surfactant or cyclodextrin, thermodynamic from solid, 30% and 70% PEG-400, read-out: solubility
  solubility: ≥ 90 mg/mL
[3]; aqueous with cosolvent or surfactant or cyclodextrin, thermodynamic from solid, 30%, 70% and 100% propylene glycol, read-out: solubility
  solubility: ≥ 90 mg/mL
[3]; aqueous with cosolvent or surfactant or cyclodextrin, thermodynamic from solid, 70% PEG-400, read-out: Solubility
  solubility: ≥ 90 mg/mL
[3]; aqueous with cosolvent or surfactant or cyclodextrin, thermodynamic from solid, 70% Propylene Glycol, read-out: Solubility
  solubility: > 87.8 mg/mL
[3]; ethanol and methanol
  solubility: freely soluble
[3]; organic solvent or mixture, thermodynamic from solid, Acetonitrile, read-out: Solubility
  solubility: ~68 mg/mL
[3]; organic solvent or mixture, thermodynamic from solid, Ethanol, read-out: Solubility
  solubility: > 211 mg/mL
[3]; organic solvent or mixture, thermodynamic from solid, Methanol, read-out: Solubility
  solubility: > 109 mg/mL
[3]; organic solvent or mixture, thermodynamic from solid, PEG-400 (100%), read-out: Solubility
  solubility: ~36 mg/mL
[3]; organic solvent or mixture, thermodynamic from solid, Propylene Glycol (100%), read-out: Solubility
  solubility: > 92.1 mg/mL
[3]; saline or isotonic, thermodynamic from solid, 0.9% NaCl, read-out: Solubility
  solubility: > 206 mg/mL
[3]; saline or isotonic, thermodynamic from solid, 5% Dextrose, read-out: Solubility
  solubility: > 201 mg/mL
[3]; saline or isotonic, thermodynamic from solid, IV solutions (0.9% saline and 5% dextrose), read-out: solubility
  solubility: ≥ 200 mg/mL
[3]; water, thermodynamic from solid, Water, read-out: Solubility
  solubility: > 400 mg/mL
[3]; water, thermodynamic from solid, water, IV solutions (0.9% saline and 5% dextrose), ethanol, methanol, 30%, 70% and 100% propylene glycol, read-out: solubility
  solubility: > 90 mg/mL
